What all share (experiment): cells
The subject of one experiment is COLO-684. The experiment is classed as functional, cell-based. The following applies: Homo sapiens.
The test system of the next experiment is SNU-5. Format: functional, cell-based. The following applies: Homo sapiens.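 Also: cell viability readout used to measure growth inhibition in human NCI-SNU-5 cells.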
The subject of the next experiment is HD-MY-Z. The experiment is classed as functional, cell-based, Homo sapiens. The following applies: Homo sapiens, HD-MY-Z.
A further experiment has as its system NOS-1. The experiment is classed as functional, cell-based, Homo sapiens. The note with it: Homo sapiens, NOS-1.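 Also: growth inhibition of the human NOS-1 cell line, read out with a cell viability assay.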
The next experiment relates to NCI-H510A. Format: functional, cell-based. The note with it: Homo sapiens.
A further experiment deals with HCC 2998. The experiment is classed as functional, cell-based, Homo sapiens. The note with it: Homo sapiens, HCC 2998.
The next experiment concerns CW-2. The experiment is classed as functional, cell-based, Homo sapiens. The note with it: Homo sapiens, CW-2.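 Also: growth inhibition of CW-2 cells, read out by a cell viability assay.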
For the next experiment, the system named is MEG-01. The experiment is classed as functional, cell-based. The following applies: Homo sapiens.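 Also: growth inhibition of MEG-01 cells, read out by a cell viability assay.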
For a further experiment, the system named is JAR. The experiment is classed as functional, cell-based, Homo sapiens. The following applies: Homo sapiens, JAR.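 Also: growth inhibition of human JAR cells determined with a cell viability assay.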
A further experiment has as its system RPMI-8226. The experiment is classed as functional, cell-based. The note with it: Homo sapiens.
Another experiment relates to HCC2218. Format: functional, cell-based. The following applies: Homo sapiens.
In another experiment the test system is VA-ES-BJ. Format: functional, cell-based, Homo sapiens. The following applies: Homo sapiens, VA-ES-BJ.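 Also: growth inhibition of the VA-ES-BJ cell line, read out by a cell viability assay.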
The subject of a further experiment is SNU1. The experiment is classed as functional, cell-based. The note with it: Homo sapiens.
For a further experiment, the system named is CP66-MEL. The experiment is classed as functional, cell-based, Homo sapiens. The following applies: Homo sapiens, CP66-MEL.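 Also: growth inhibition of CP66-MEL cells determined in a cell viability assay.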
In another experiment the test system is NCI-H446. Format: functional, cell-based. The note with it: Homo sapiens.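 Also: growth inhibition of NCI-H446 cells determined by a cell viability assay.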
A further experiment has as its system LU-139. Format: functional, cell-based. The following applies: Homo sapiens.
In the next experiment the test system is MOLT-4. Format: functional, cell-based. The following applies: Homo sapiens.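 Also: growth inhibition of MOLT-4 cells, determined with a cell viability readout.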
In a further experiment the test system is LXF-289 cell line. Format: functional, cell-based, Homo sapiens. The following applies: Homo sapiens, LXF-289.
The subject of the next experiment is Ramos-2G6-4C10. Format: functional, cell-based. The note with it: Homo sapiens.
Another experiment concerns SF-268. Format: functional, cell-based, Homo sapiens. The note with it: Homo sapiens, SF-268.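 Also: growth inhibition of SF-268 cells determined with a cell viability assay.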
The next experiment deals with ES4. Format: functional, cell-based, Homo sapiens. The following applies: Homo sapiens, ES4.
The next experiment deals with MFH-ino. The experiment is classed as functional, cell-based. The following applies: Homo sapiens.

A value given as a limit tells only on which side of the number the result lay.

This note sets out measurements from ChEMBL document CHEMBL1201861, “Genomics of Drug Sensitity in Cancer screening data, Wellcome Trust Sanger Institute”.

Description for COLO-684: SANGER: Inhibition of human COLO-684 cell growth in a cell viability assay.
Description for CP66-MEL: SANGER: Inhibition of human CP66-MEL cell growth in a cell viability assay.
Description for CW-2: SANGER: Inhibition of human CW-2 cell growth in a cell viability assay.
Description for ES4: SANGER: Inhibition of human ES4 cell growth in a cell viability assay.
Description for HCC 2998: SANGER: Inhibition of human HCC2998 cell growth in a cell viability assay.
Description for HCC2218: SANGER: Inhibition of human HCC2218 cell growth in a cell viability assay.
Description for HD-MY-Z: SANGER: Inhibition of human HD-MY-Z cell growth in a cell viability assay.
Description for LU-139: SANGER: Inhibition of human LU-139 cell growth in a cell viability assay.
Description for LXF-289 cell line: SANGER: Inhibition of human LXF-289 cell growth in a cell viability assay.
Description for MEG-01: SANGER: Inhibition of human MEG-01 cell growth in a cell viability assay.
Description for MFH-ino: SANGER: Inhibition of human MFH-ino cell growth in a cell viability assay.
Description for MOLT-4: SANGER: Inhibition of human MOLT-4 cell growth in a cell viability assay.
Description for NCI-H446: SANGER: Inhibition of human NCI-H446 cell growth in a cell viability assay.
Description for NCI-H510A: SANGER: Inhibition of human NCI-H510A cell growth in a cell viability assay.
Description for NOS-1: SANGER: Inhibition of human NOS-1 cell growth in a cell viability assay.
Description for RPMI-8226: SANGER: Inhibition of human RPMI-8226 cell growth in a cell viability assay.
Description for Ramos-2G6-4C10: SANGER: Inhibition of human Ramos-2G6-4C10 cell growth in a cell viability assay.
Description for SF-268: SANGER: Inhibition of human SF268 cell growth in a cell viability assay.
Description for SNU-5: SANGER: Inhibition of human NCI-SNU-5 cell growth in a cell viability assay.
Description for SNU1: SANGER: Inhibition of human NCI-SNU-1 cell growth in a cell viability assay.
Description for VA-ES-BJ: SANGER: Inhibition of human VA-ES-BJ cell growth in a cell viability assay.

By IC50 is commonly meant the point on the concentration scale where inhibition reaches its midpoint. Turning to `C=C1C(=O)O[C@@H]2C3O[C@]3(C)CC/C=C(\C)CC[C@@H]12` (some centres not stated), the IC50 in the experiment with COLO-684, in the experiment on SNU-5, in the experiment with HD-MY-Z, with NOS-1, with NCI-H510A and in the experiment with HCC 2998 was over 5 µM each time. Also, the IC50 in the experiment on CW-2, in the experiment with MEG-01, with JAR, with RPMI-8226, in the experiment on HCC2218 and with VA-ES-BJ was over 5 µM each time. Besides, the IC50 in the experiment on SNU1, in the experiment on CP66-MEL, in the experiment on NCI-H446, with LU-139, with MOLT-4 and in the experiment on LXF-289 cell line was over 5 µM each time. In addition, the half-inhibitory concentration (IC50) in the experiment on Ramos-2G6-4C10, in the experiment with SF-268, in the experiment with ES4 and with MFH-ino was over 5 µM each time.
In the case of `CC1=C2C[C@H]3[C@@H](CC=C4C[C@@H](O)CC[C@@]43C)[C@@H]2CC[C@]12O[C@@H]1C[C@H](C)CN[C@H]1[C@H]2C` [CYCLOPAMINE], the IC50 with COLO-684, in the experiment on SNU-5, with HD-MY-Z, with NOS-1, in the experiment with NCI-H510A and in the experiment with HCC 2998 was over 16 µM throughout. The IC50 in the experiment with CW-2, in the experiment on MEG-01, with JAR, in the experiment on RPMI-8226, in the experiment on HCC2218 and in the experiment with VA-ES-BJ was over 16 µM in each case. Also, the concentration for half-maximal inhibition (IC50) in the experiment with SNU1, in the experiment on CP66-MEL, in the experiment with NCI-H446, in the experiment on LU-139, with MOLT-4 and in the experiment on LXF-289 cell line was over 16 µM in each case. Moreover, the IC50 with Ramos-2G6-4C10, in the experiment on SF-268, with ES4 and in the experiment on MFH-ino was over 16 µM each time.
For the compound `CS(=O)(=O)CCNCc1ccc(-c2ccc3ncnc(Nc4ccc(OCc5cccc(F)c5)c(Cl)c4)c3c2)o1` [LAPATINIB], the IC50 in the experiment on COLO-684, with SNU-5, in the experiment with HD-MY-Z, in the experiment with NOS-1, in the experiment on NCI-H510A and in the experiment with HCC 2998 was over 2 µM in each case. Besides, the 50% inhibitory concentration (IC50) in the experiment with CW-2 was over 2 µM; in the experiment on MEG-01 it was over 2 µM; with JAR it was over 2 µM; in the experiment on RPMI-8226, over 2 µM; in the experiment with HCC2218 it was 0.0533 µM; with VA-ES-BJ it was over 2 µM. Besides, the concentration for half-maximal inhibition (IC50) in the experiment with SNU1, in the experiment on CP66-MEL, in the experiment on NCI-H446, with LU-139, in the experiment with MOLT-4 and in the experiment with LXF-289 cell line was over 2 µM in each case. In addition, the half-inhibitory concentration (IC50) in the experiment on Ramos-2G6-4C10, in the experiment with SF-268, with ES4 and in the experiment on MFH-ino was over 2 µM throughout.
`CCc1nc(N)nc(N)c1-c1ccc(Cl)cc1` [PYRIMETHAMINE]: the IC50 with COLO-684 is 6.76 µM; in the experiment with SNU-5, over 20 µM; in the experiment with HD-MY-Z, 11.9 µM; with NOS-1, 6.66 µM; in the experiment with NCI-H510A it was over 20 µM; in the experiment on HCC 2998 it was 5.78 µM. Further, the IC50 is over 20 µM with CW-2; 11.8 µM in the experiment on MEG-01; over 20 µM in the experiment with JAR; over 20 µM in the experiment with RPMI-8226; over 20 µM in the experiment on HCC2218; 15.2 µM in the experiment with VA-ES-BJ. Besides, the IC50 is 14.7 µM with SNU1; over 20 µM in the experiment on CP66-MEL; over 20 µM with NCI-H446; 11.1 µM with LU-139; 5.43 µM in the experiment on MOLT-4; over 20 µM in the experiment on LXF-289 cell line. Further, the IC50 is 5.64 µM in the experiment on Ramos-2G6-4C10, 3.6 µM in the experiment on SF-268, 3.12 µM in the experiment on ES4 and over 20 µM in the experiment on MFH-ino.
Consider `O=C(/C=C/c1ccccc1)NC(NC(=S)Nc1cccc2cccnc12)C(Cl)(Cl)Cl` (configuration not stated) [SALUBRINAL], for which the IC50 with COLO-684 is over 16 µM; in the experiment on SNU-5, over 16 µM; in the experiment with HD-MY-Z it was over 16 µM; in the experiment with NOS-1, over 16 µM; in the experiment on NCI-H510A, 7.04 µM; in the experiment on HCC 2998, over 16 µM. The half-maximal inhibitory concentration (IC50) with CW-2, in the experiment with MEG-01, in the experiment on JAR, in the experiment with RPMI-8226, in the experiment with HCC2218 and in the experiment with VA-ES-BJ was over 16 µM throughout. Moreover, the concentration for half-maximal inhibition (IC50) in the experiment on SNU1 was over 16 µM; in the experiment on CP66-MEL, over 16 µM; with NCI-H446, over 16 µM; in the experiment with LU-139, 14 µM; with MOLT-4 it was over 16 µM; with LXF-289 cell line, 11.2 µM. Besides, the IC50 was 9.9 µM with Ramos-2G6-4C10, over 16 µM with SF-268, over 16 µM in the experiment with ES4 and over 16 µM in the experiment with MFH-ino.
Consider `CNC(=O)c1cc(Oc2ccc(NC(=O)Nc3ccc(Cl)c(C(F)(F)F)c3)cc2)ccn1` [SORAFENIB], for which the half-maximal inhibitory concentration (IC50) in the experiment on COLO-684 was over 4 µM; in the experiment on SNU-5, over 4 µM; in the experiment with HD-MY-Z, over 4 µM; with NOS-1, 0.564 µM; in the experiment on NCI-H510A, over 4 µM; in the experiment on HCC 2998 it was 0.888 µM. In addition, the half-inhibitory concentration (IC50) with CW-2 is over 4 µM; with MEG-01, 1.81 µM; in the experiment on JAR it was over 4 µM; with RPMI-8226, over 4 µM; in the experiment on HCC2218 it was 3.12 µM; in the experiment on VA-ES-BJ, over 4 µM. Further, the concentration for half-maximal inhibition (IC50) with SNU1 was 2.32 µM; in the experiment on CP66-MEL it was over 4 µM; in the experiment with NCI-H446, over 4 µM; with LU-139, over 4 µM; in the experiment on MOLT-4 it was over 4 µM; in the experiment with LXF-289 cell line, over 4 µM. Moreover, the IC50 was over 4 µM with Ramos-2G6-4C10, over 4 µM in the experiment with SF-268, over 4 µM in the experiment on ES4 and 2.92 µM with MFH-ino.
